Source: US8338565B2, “Macrocyclic compounds for inhibition of tumor necrosis factor alpha” (Ensemble Therapeutics Corporation, priority 2008, dated 2012)
Read-outs that look alike come from different tables or passages of the source. Numbered stars: 1 amine (or outer) side, 2 acyl side, 3 side chain; on linkers, the order of the positions; unused ones are H or OH. Bridge positions count the residues as written; N and C are the ends. Square brackets hold non-standard residues; d marks the D form. Peptide text beside a SMILES is read from it. Bip(4'-Cl) = N[C@@H](Cc1ccc(-c2ccc(Cl)cc2)cc1)C(=O)O; Phe(4-CF3) = N[C@@H](Cc1ccc(C(F)(F)F)cc1)C(=O)O; Phe(2,4-Cl2) = N[C@@H](Cc1ccc(Cl)cc1Cl)C(=O)O; Bip = N[C@@H](Cc1ccc(-c2ccccc2)cc1)C(=O)O; dPhe(4-NH2) = Nc1ccc(C[C@@H](N)C(=O)O)cc1; Phe(4-NH2) = Nc1ccc(C[C@H](N)C(=O)O)cc1; d(hPhe) = N[C@H](CCc1ccccc1)C(=O)O; d2Thi = N[C@H](Cc1cccs1)C(=O)O; Suc = O=C(CCC(=O)[*:2])[*:1]; βAla = NCCC(=O)O

Tests used:
[1] = tested on: TNF-α (degradation of IkB in HeLa cells or A431 cells); experiment: Human cell-based assay: inhibition of TNF-α induced degradation of IkB; settings: for inhibition at 5 µM: read-out: Inhibition at Various Compound Concentrations, 5 μM; for inhibition at 10 µM: read-out: Inhibition at Various Compound Concentrations, 10 μM; for inhibition at 25 µM: 25 μM compound, read-out: Inhibition at Various Compound Concentrations, 25 μM
Description: We used a human cell-based assay to determine the TNF-α antagonistic activity of the compounds of this invention based upon the ability of the compounds to inhibit the degradation of IkB in those cells. The assay was performed on either HeLa cells or A431 cells.
On Day 1, wells of a 24-well tissue culture plate were seeded with cells that had been harvested from cultures in T-75 flasks by standard trypsin/EDTA treatment. The harvested cells were suspended in EMEM/10% FBS/P/S (100,000 HeLa cells/mL or 200,000 A431 cells/mL) and 1 mL aliquots were placed into each well. The cells were incubated overnight at 37° C. in a humidified CO2 incubator. On day 2, the cells were approximately 95% confluent.
Test and control compounds were diluted to a 1 mM solution by dilution in DMSO. The assay was run in Costar tubes. Into each tube was placed 2.5 or 5.0 μL of test compound (for testing 5 μM and 10 μM concentrations, respectively), 2.5 μL of 100× TNF-α solution (200 ng/mL TNF-α in EMEM containing 1μg/mL cycloheximide) and, for those tubes containing 2.5 μL of compound, an additional 2.5 μL of DMSO. To each tube was then added 0.5 mL of EMEM containing 1μg/mL cycloheximide. Negative control tubes contained either a) no compound, or b) no TNF-α. Tubes were then incubated for 30 minutes at room temperature.
Once incubation had begun, the media was aspirated from the cells in the 24-well plates. Sufficient EMEM/10% FBS/P/S containing 1 ug/mL cycloheximide was then added to cover the cells (approximately 3 mL) and the cells were retuned to the 37° C. humidified CO2 incubator until compound incubation was completed. The media was then aspirated from the cells, 0.2 mL of the compound solution was added and the cells re-incubated at 37° C. for 30 minutes. The plates were then placed on ice, the compound solution was aspirated from each well, and the cells washed once with 1 mL of cold PBS. Cells were then fixed with 500 μL of 3.7% formaldehyde in PBS (“fix solution”) for 20 minutes at room temperature. The fix solution was decanted and the cells permeabilized by 4× washing with 500 uL PBS/0.1% Triton X-100. After the final permeabilization wash, the cells were treated with 500 uL of Odyssey blocking buffer (OBB) and incubated at room temperature with shaking for 90 minutes.
The OBB was decanted and then to each well was then added 125 μL each of mouse anti-IkB CST#4814 (diluted 1:200 in OBB) and rabbit anti-beta-tubulin CST#2146 (diluted 1:200 in OBB). Plates were sealed with parafin and incubated overnight at room temperature with shaking.
On day 3, the antibody solution was removed from the cells and the cells were washed 5× with 0.5 mL PBST for five minutes each on a shaker. To each well was then aded 125 μL of a secondary antibody solution containing goat anti-mouse IgG-IRDye 800 and goat anti-rabbit IgG-IRDye (each diluted 1:500 in OBB+0.2% Tween 20). The plates were covered with aluminum foil and incubated for 1 hour at room temperature with shaking. The secondary antibody solution was removed and the cells washed 3× with 0.5 mL PBST for five minutes each on a shaker. Cells were then scanned by LICOR with the following settings: 700 intensity=6.0, 800 intensity=6.5; microplate2 settings with 3.0 mm offset; 169 resolution. LICOR values were fitted to an equation for a sigmoidal curve and IC50 values calculated from the fitted parameters. […] Blank cells indicate that the compound was not tested at that concentration. Certain compounds that were tested more than once and the values reflect the average of the multiple tests.

[2] = target: T1, TNFα / TNFα receptor (TNFα R1/Fc) (Homo sapiens, UniProt P01375); experiment: Inhibition of binding of TNFα to the TNFα receptor (plate ELISA competition); settings: Table 2
T1 construct: purchased R&D Systems
T1 sequence (P01375 77-233 limits assumed, species assumed): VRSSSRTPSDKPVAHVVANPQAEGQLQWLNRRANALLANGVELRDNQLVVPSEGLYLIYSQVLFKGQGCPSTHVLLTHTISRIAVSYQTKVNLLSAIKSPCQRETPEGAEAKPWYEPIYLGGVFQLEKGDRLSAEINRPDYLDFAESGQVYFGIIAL
How it was run: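 Compound dilutions were preincubated 30 min at RT with 8.33 nM TNFα R1/Fc in PBST with 2% DMSO, then added to wells coated with 15 nM TNFα for 30 min. Bound receptor was detected with HRP anti-human Fc and TMB, read as A450.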

[3] = read-out: Activity (IC50, inhibition of TNFα binding to TNFα R1/Fc)
[4] = Activity (IC50, inhibition of TNFα binding to TNFα R1/Fc)
[5] = 5 μM compound, HeLa or A431 cells
[6] = 10 μM compound, HeLa or A431 cells

SMILES | inhibition at 5 µM [1] | inhibition at 10 µM [1] | IC50 [2, 3] | inhibition at 25 µM ([1]; HeLa or A431 cells) | IC50 [2, 4] | inhibition at 5 µM [1, 5] | inhibition at 10 µM [1, 6]
O=C1COc2ccc(cc2)C[C@@H](C(=O)O)NC(=O)[C@H](Cc2ccccc2)NC(=O)[C@H](Cc2ccc(-c3ccc(C(=O)OCc4ccccc4)cc3)cc2)NC(=O)[C@H](Cc2cccs2)N1 [Compound 396] | 10 to 50% | 50 to 80% | < 10 µM |  |  |  | 
O=C1CCC(=O)N[C@H](Cc2cccs2)C(=O)N[C@@H](Cc2ccc(-c3ccccc3)cc2)C(=O)N[C@H](Cc2ccccc2)C(=O)N[C@@H](C(=O)N[C@@H](Cc2ccccc2)C(=O)O)Cc2ccc(cc2)N1 [Compound 198] ([d2Thi][Bip][dF][dPhe(4-NH2)]F-OH; linker N-4 via Suc) |  |  | < 10 µM | 50 to 80% |  |  | 
O=C1COc2ccc(cc2)C[C@@H](C(=O)NC2(C(=O)O)CC2)NC(=O)[C@@H](CCc2ccccc2)NC(=O)[C@H](Cc2ccc(-c3ccccc3)cc2)NC(=O)[C@@H](Cc2cccs2)N1 [Compound 299] | < 10% | < 10% |  |  | < 10 µM |  | 
O=C(O)[C@@H]1Cc2ccc(cc2)NC(=O)[C@H](O)[C@@H](O)C(=O)N[C@H](Cc2cccs2)C(=O)N[C@@H](Cc2ccc(-c3ccc(Cl)cc3)cc2)C(=O)N[C@H](Cc2ccccc2)C(=O)N1 [Compound 180] |  |  | < 10 µM |  |  | < 10% | < 10%
O=C1CCC(=O)N[C@H](CCc2ccccc2)C(=O)N[C@@H](Cc2ccc(-c3ccc(Cl)cc3)cc2)C(=O)N[C@H](Cc2ccccc2)C(=O)N[C@H](C(=O)O)Cc2ccc(cc2)N1 [Compound 116] ([d(hPhe)][Bip(4'-Cl)][dF][Phe(4-NH2)]-OH; linker N-4 via Suc) |  |  | < 10 µM |  |  | 10 to 50% | < 10%
CC(C)[C@H](NC(=O)[C@@H]1Cc2ccc(cc2)NC(=O)CCC(=O)N[C@H](Cc2cccs2)C(=O)N[C@@H](Cc2ccc(-c3ccccc3)cc2)C(=O)N[C@H](Cc2ccccc2)C(=O)N1)C(=O)O [Compound 26] ([d2Thi][Bip][dF][Phe(4-NH2)]V-OH; linker N-4 via Suc) |  |  | 10 to 30 µM | 10 to 50% |  |  | 
O=C(O)[C@@H]1Cc2ccc(cc2)NC(=O)[C@H](O)[C@@H](O)C(=O)N[C@H](Cc2ccccc2)C(=O)N[C@@H](Cc2ccc(-c3ccccc3)cc2)C(=O)N[C@H](Cc2ccccc2)C(=O)N1 [Compound 313] |  |  | < 10 µM |  |  | < 10% | 10 to 50%
O=C(O)CCCCCNC(=O)[C@@H]1Cc2ccc(cc2)OCC(=O)N[C@H](Cc2cccs2)C(=O)N[C@@H](Cc2ccc(-c3ccccc3)cc2)C(=O)N[C@H](CCc2ccccc2)C(=O)N1 [Compound 395] |  |  | < 10 µM |  |  | < 10% | < 10%
O=C(O)CCNC(=O)[C@H]1Cc2ccc(cc2)NC(=O)CCC(=O)N[C@H](CCc2ccccc2)C(=O)N[C@@H](Cc2ccc(C(F)(F)F)cc2)C(=O)N[C@H](Cc2ccccc2)C(=O)N1 [Compound 15] ([d(hPhe)][Phe(4-CF3)][dF][dPhe(4-NH2)][βAla]-OH; linker N-4 via Suc) |  |  | 10 to 30 µM |  |  |  | < 10%
COC(=O)[C@H](CC(=O)O)NC(=O)[C@@H]1Cc2ccc(cc2)OCC(=O)N[C@H](Cc2cccs2)C(=O)N[C@@H](Cc2ccc(-c3ccccc3)cc2)C(=O)N[C@H](CCc2ccccc2)C(=O)N1 [Compound 325] |  |  | < 10 µM |  |  |  | < 10%
O=C1COc2ccc(cc2)C[C@@H](C(=O)N[C@@H](Cc2ccccc2)C(=O)O)NC(=O)[C@@H](CCc2ccccc2)NC(=O)[C@H](Cc2ccc(-c3ccccc3)cc2)NC(=O)[C@@H](CCc2ccccc2)N1 [Compound 158] | 50 to 80% | 50 to 80% |  |  | < 10 µM |  | 
COC(=O)c1ccc(-c2ccc(C[C@@H]3NC(=O)[C@@H](Cc4cccs4)NC(=O)[C@H](O)[C@@H](O)C(=O)Nc4ccc(cc4)C[C@@H](C(=O)O)NC(=O)[C@@H](Cc4ccccc4)NC3=O)cc2)cc1 [Compound 332] |  |  | < 10 µM |  |  | < 10% | 
O=C1CCC(=O)N[C@H](Cc2cccs2)C(=O)N[C@@H](Cc2ccc(Cl)cc2Cl)C(=O)N[C@H](Cc2ccccc2)C(=O)N[C@H](C(=O)O)Cc2ccc(cc2)N1 [Compound 82] ([d2Thi][Phe(2,4-Cl2)][dF][Phe(4-NH2)]-OH; linker N-4 via Suc) |  |  | 10 to 30 µM |  |  | < 10% | < 10%
O=C(O)CCNC(=O)[C@@H]1Cc2ccc(cc2)OCC(=O)N[C@H](Cc2cccs2)C(=O)N[C@@H](Cc2ccc(-c3ccccc3)cc2)C(=O)N[C@H](CCc2ccccc2)C(=O)N1 [Compound 301] |  |  | < 10 µM |  |  | < 10% | < 10%
O=C1COc2ccc(cc2)C[C@@H](C(=O)NC2(C(=O)O)CC2)NC(=O)[C@H](Cc2ccccc2)NC(=O)[C@H](Cc2ccc(-c3ccccc3)cc2)NC(=O)[C@H](Cc2cccs2)N1 [Compound 344] | 10 to 50% | 50 to 80% |  |  | < 10 µM |  | 
O=C(O)CCNC(=O)[C@@H]1Cc2ccc(cc2)OCC(=O)N[C@@H](Cc2cccs2)C(=O)N[C@H](Cc2ccc(-c3ccccc3)cc2)C(=O)N[C@@H](Cc2ccccc2)C(=O)N1 [Compound 319] |  |  | < 10 µM |  |  | < 10% | < 10%
O=C1CCC(=O)N[C@H](Cc2cccs2)C(=O)N[C@@H](Cc2ccc(-c3ccccc3)cc2)C(=O)N[C@H](Cc2ccccc2)C(=O)N[C@H](C(=O)O)Cc2ccc(cc2)N1 [Compound 1] ([d2Thi][Bip][dF][Phe(4-NH2)]-OH; linker N-4 via Suc) |  |  | 10 to 30 µM | 10 to 50% |  |  | 
O=C1COc2ccc(cc2)C[C@@H](C(=O)O)NC(=O)[C@H](Cc2ccccc2)NC(=O)[C@H](Cc2ccc(-c3ccncc3)cc2)NC(=O)[C@H](Cc2cccs2)N1 [Compound 366] | < 10% | < 10% | < 10 µM |  |  |  | 
O=C1CCC(=O)N[C@H](CCc2ccccc2)C(=O)N[C@@H](Cc2ccc(-c3ccccc3)cc2)C(=O)N[C@H](Cc2ccccc2)C(=O)N[C@H](C(=O)O)Cc2ccc(cc2)N1 [Compound 117] ([d(hPhe)][Bip][dF][Phe(4-NH2)]-OH; linker N-4 via Suc) |  |  | < 10 µM |  |  | < 10% | 50 to 80%
C[C@H](NC(=O)[C@@H]1Cc2ccc(cc2)OCC(=O)N[C@@H](Cc2cccs2)C(=O)N[C@H](Cc2ccc(-c3ccccc3)cc2)C(=O)N[C@@H](Cc2ccccc2)C(=O)N1)C(=O)O [Compound 385] |  |  | < 10 µM |  |  | 50 to 80% | > 80%
O=C(O)CCNC(=O)[C@@H]1Cc2ccc(cc2)NC(=O)CCC(=O)N[C@H](Cc2cccs2)C(=O)N[C@@H](Cc2ccc(-c3ccccc3)cc2)C(=O)N[C@H](Cc2ccccc2)C(=O)N1 [Compound 21] ([d2Thi][Bip][dF][Phe(4-NH2)][βAla]-OH; linker N-4 via Suc) |  |  | < 10 µM | < 10% |  |  | 
O=C(O)[C@H](Cc1ccccc1)NC(=O)[C@@H]1Cc2ccc(cc2)NC(=O)[C@H](O)[C@@H](O)C(=O)N[C@H](Cc2ccc(F)c(F)c2)C(=O)N[C@@H](Cc2ccc(-c3ccccc3)cc2)C(=O)N[C@H](Cc2ccccc2)C(=O)N1 [Compound 282] |  |  | < 10 µM |  |  | 50 to 80% | 10 to 50%
